The values below come from paper PMC6920949, “Muscle to Brain Partitioning as Measure of Transporter-Mediated Efflux at the Rat Blood–Brain Barrier and Its Implementation into Compound Optimization in Drug Discovery” (Pharmaceutics, 2019).

On the set-up of series [1]: method as in PMID 28880093. The conditions noted are these: dog cerebrum, cerebellum, brain stem; cited from earlier work.
The conditions of series [2]: rat, in vivo.
Description: (§1) Animal experiments were performed in male rats of different strains (Han Wistar, Sprague Dawley, Lister Hooded, Long-Evans, supplied by commercial breeders, typically Charles River, Sulzfeld, Germany or Janvier Labs, Saint-Berthevin Cedex, France). Only two studies were done in female animals. Typically three animals were used per experiment. […] Compounds were dosed orally, intravenously, subcutaneously, or intraperitoneally. For tissue sampling animals were anaesthetized with Ketamin/Inactin. After dissection of the cisterna magna, approximately 50 µL CSF was collected via a 0.4-mm cannula. Blood was collected from the retroorbital plexus into K3EDTA coated vials (Sarstedt, Nümbrecht, Germany) and plasma was collected by centrifugation for 5 min at approximately 5000 rpm. Animals were exsanguinated via the vena cava. The femoral muscle was prepared. A small piece (approximately 0.2–0.5 g) was excised, rinsed in cold physiological NaCl, and the remaining fat and superficial vessels were removed. For brain isolation, skin and muscle of head and neck were removed. The cranium was opened with a bone trimmer by one central and two lateral incisions. […]
(§2) Prior to bioanalysis plasma samples and dialysates were spiked with internal standard solution and diluted with acetonitrile for protein precipitation. […] Quantification was performed using external calibration.
Details of series [3]: method as in PMID 21934030. The conditions noted are these: rat, brain slice method; cited from earlier work.
The conditions of series [4]: compounds without blood-brain barrier efflux; cited from earlier work.
Series [5] can be described thus: Kp,br/mu: brain to skeletal muscle partitioning, tissue distribution study in rats. The conditions noted are these: rat, brain and skeletal (femoral) muscle.
Description: as §1, §2
A short description of series [6]: Kp,uu,brain by brain homogenate method. The series is classed as in vivo. The conditions noted are these: brain and plasma (unbound), rat, Table 4, read-out: Kp,uu,brain(hom) (This publication).
Excerpt: Under steady-state conditions, Kp,uu,brain defines the ratio between the unbound drug concentration in brain (Cu,brain), i.e., the interstitial fluid (ISF) and the unbound drug concentration in plasma(Cu,plasma) (Equation (1)). Kp,uu,brain = Cu,brain/Cu,plasma(1) Using microdialysis, the concentrations in brain ISF can be determined. […] Kp,uu,brain = Cu,brain/Cu,plasma = (Cbrain × fu,brain)/(Cplasma × fu,plasma) = Kp,brain × (fu,brain/fu,plasma)(2) where Cplasma and Cbrain are the plasma and brain concentration, respectively. Kp is the partition coefficient of total drug in brain and plasma:Kp,brain = Cbrain/Cplasma(3)
Animal experiments were performed in male rats of different strains (Han Wistar, Sprague Dawley, Lister Hooded, Long-Evans, supplied by commercial breeders, typically Charles River, Sulzfeld, Germany or Janvier Labs, Saint-Berthevin Cedex, France). Only two studies were done in female animals. Typically three animals were used per experiment. […] Compounds were dosed orally, intravenously, subcutaneously, or intraperitoneally. […]
Binding of research compounds to plasma protein and tissue homogenates was determined using the equilibrium dialysis method as described previously [9, 15]. […] Unbound plasma concentration (fu,plasma) was calculated as:fu,plasma = (Cplasma − Cbuffer)/Cplasma,(7) where Cplasma and Cbuffer are the plasma and buffer concentration, respectively.

Consider `Cc1nnc2n1-c1sc(CCC(=O)N3CCOCC3)cc1C(c1ccccc1Cl)=NC2` [apafant], for which the “effect of up to 5-fold P-gp and BCRP expression differences between brain regions on Kp,brain” value in series [1] was “did not affect”.

As for `NC(=O)N1c2ccccc2C=Cc2ccccc21` [Carbamazapine], in series [2], the “Kp,br/mu (This publication)” value was found to be 1.44. Moreover, the “Kp,uu,brain (Literature)” value in series [3] is 0.771.

Regarding `Cc1ncc2n1-c1ccc(Cl)cc1C(c1ccccc1F)=NC2` [midazolam], the “distribution into brain and skeletal muscle” value in series [4] was “very similar distributions into brain and skeletal muscle”.

In the case of `C=C[C@H]1C[N@@]2CC[C@H]1C[C@@H]2[C@@H](O)c1ccnc2ccc(OC)cc12` [Quinidine], in series [1], the “effect of up to 5-fold P-gp and BCRP expression differences between brain regions on Kp,brain” value was “did not affect”. Besides, in series [5], the Kp amounted to 0.056. In addition, in series [6], the Kp uu turned out to be 0.0276.
